Data reported in patent US20250034130A1, “Crystal Form of Tolebrutinib, Preparation Method Therefor and Use Thereof” (Principia Biopharma Inc., priority 2021, published 2025).
Entries after “also recorded” stand apart in the source; their conditions may differ.

Legend:
Assay type in all cases: physicochemical
[1] = Physical and chemical stability on storage in opened packages (purity by UPLC, solid form by XRPD); conditions: for Chemical purity after storage (in words): 60° C./75% RH (b74 also name 80° C. and light)
Description: X-ray powder diffraction patterns in the present disclosure were acquired by a Bruker X-ray powder diffractometer. The parameters of the X-ray powder diffraction method of the present disclosure are as follows: • X-Ray: Cu, Kα • Kα1 (Å): 1.54060; Kα2 (Å): 1.54439 • Kα2/Kα1 intensity ratio: 0.50
(§1) The related substance in the present disclosure was detected by UPLC and the parameters are shown below.
Said “room temperature” is not a specific temperature, but a temperature range of 10-30° C. Said “open packaged” is putting the sample into a glass vial, covering the vial with aluminum foil, and punching 5-10 holes on the foil.
(§2) Form CSII of the present disclosure and the prior art amorphous form were weighed and stored under 25° C./60% RH, 40° C./75% RH and 60° C./75% RH conditions, in opened packages, respectively. The purity and solid form were determined by UPLC and XRPD. The results are listed in Table 3, and the overlaid XRPD patterns of Form CSII before and after storage for stability evaluation are shown in FIG. 4.
as §2, with “CSIII” for “CSII”, “10,” for “3,”, “9.” for “4.”
as §2, with “CSIV” for “CSII”, “C./60%” for “C./60% RH, 40° C./75%”, “40°” for “60°”, “16,” for “3,”, “15.” for “4.”

[2] = Stability at high temperature (80° C., 2 days, purity by UPLC); conditions: for Purity change / Chemical purity (in words): 2 days; for Purity change: glass vial with cap
Description: as §1
Certain amounts of Form CSII of the present disclosure and the prior art amorphous form were weighted and stored at 80° C. for 2 days, and the purities of the solids before and after storage were determined by UPLC, the results are as shown in Table 4.
Certain amounts of Form CSIII of the present disclosure and the prior art amorphous form were weighted and stored at 80° C. for 2 days, and the purities of the solids before and after storage were determined by UPLC, the results are as shown in Table 11.
Certain amounts of Form CSIV of the present disclosure and the prior art amorphous form were stored at 80° C. for 2 days, and the purities of the solids before and after storage were determined by UPLC, the results are as shown in Table 17.

[3] = Light stability (Chinese Pharmacopoeia method, purity by UPLC); conditions: light not less than 1.2×10^6 lux-hr, near-UV not less than 200 W-hr/m^2; for Purity change: 1 week; for Chemical purity (in words): about 1 week
Description: as §1
(§3) Certain amounts of Form CSII of the present disclosure and the prior art amorphous form were weighted and stored for about 1 week, in accordance with the method of the Chinese Pharmacopoeia, under the condition that the total illumination of the light source was not less than 1.2×106 lux-hr and the energy of the near-ultraviolet lamp was not less than 200 W-hr/m^2, the purities of the solids before and after storage were measured by UPLC and the results are shown in Table 5.
as §3, with “CSIII” for “CSII”, “1.2×10^6” for “1.2×106”, “12.” for “5.”
as §3, with “CSIV” for “CSII”, “1.2×10^6” for “1.2×106”, “18.” for “5.”

[4] = Hygroscopicity by DVS (0% RH-95% RH-0% RH at 25° C.); conditions: for Weight gain at 80% RH: DVS; for Weight gain at 80% RH / Hygroscopicity class: 25° C.; for Hygroscopicity class: weight gain at 80% RH
Description: DVS was measured via an SMS (Surface Measurement Systems Ltd.) intrinsic DVS instrument.
Parameters for DVS method are as follows: • Temperature: 25° C. • Gas and flow rate: nitrogen, 200 mL/min • RH range: 0% RH to 95% RH • ^1H NMR were collected from a Bruker Avance II DMX 400M HZ NMR spectrometer. 1-5 mg of sample was weighed and dissolved in 0.5 mL of deuterated dimethyl sulfoxide to obtain a solution with a concentration of 2-10 mg/mL.
Certain amounts of Form CSII of the present disclosure and the prior art amorphous form were sampled for hygroscopicity tests using DVS instrument. The weight change at each relative humidity was recorded during the cycle of 0% RH-95% RH-0% RH at 25° C.
Description and definition of hygroscopicity (general notice 9103 drug hygroscopicity test guidelines in 2020 edition of Chinese Pharmacopoeia, experimental condition: 25±1° C., 80±2% RH):
Certain amounts of Form CSIII of the present disclosure and the prior art amorphous form were sampled for hygroscopicity tests using DVS instrument. The weight change at each relative humidity was recorded during the cycle of 0% RH-95% RH-0% RH at 25° C.
Certain amounts of Form CSIV of the present disclosure and the prior art amorphous form were sampled for hygroscopicity tests using DVS instrument. The weight change at each relative humidity was recorded during the cycle of 0% RH-95% RH-0% RH at 25° C.

[5] = Grinding stability (manual grinding 5 minutes in a mortar, XRPD); conditions: ground manually 5 minutes in a mortar
Description: Form CSII was grounded manually for 5 minutes in a mortar. XRPD was tested before and after the grinding.
Form CSIII was grounded manually for 5 minutes in a mortar. XRPD was tested before and after the grinding.
Form CSIV was grounded manually for 5 minutes in a mortar. XRPD was tested before and after the grinding.

[6] = Stability of crystalline form in tablet formulation process (XRPD before and after); conditions: tablets per Table 7 and Table 8, XRPD
Description: According to the formulation and process in Table 7 and Table 8, the tablets were prepared with an appropriate amount of Form CSII of the present disclosure. XRPD was tested before and after formulation.
According to the formulation and process in Table 7 and Table 8, the tablets were prepared with an appropriate amount of Form CSIII of the present disclosure. XRPD was tested before and after formulation.
According to the formulation and process in Table 7 and Table 8, the tablets were prepared with an appropriate amount of Form CSIV of the present disclosure. XRPD was tested before and after formulation.

[7] = 25° C./60% RH, 6 months, open package
[8] = 40° C./75% RH, 2 months, open package
[9] = 40° C./75% RH, 6 months, open package
[10] = 60° C./75% RH, 1 month, open package
[11] = Initial, ICH Q3A (R2) thresholds

C=CC(=O)N1CCC[C@@H](n2c(=O)n(-c3ccc(Oc4ccccc4)cc3)c3c(N)nccc32)C1 [Amorphous, (R)-1-(1-acryloylpiperidin-3-yl)-4-amino-3-(4-phenoxyphenyl)-1H-imidazo[4,5-c] pyridin-2(3H)-one, reference compound]
Purity [1, 7]: 99.57% | Purity change [1, 7]: −0.23% | Solid form [1, 7]: Amorphous | The number of the purities exceeding the qualification thresholds [1, 7]: 1 | Chemical purity after storage (in words) ([1]; 25° C./60% RH, 40° C./75% RH, listed as prior art amorphous form): decreased significantly | Chemical purity after storage (in words) ([1]; 25° C./60% RH, 40° C./75% RH, listed as prior art solid): decreases significantly | Purity decrease ([1]; 40° C./75% RH, 2 months): 2.18% | Purity [1, 8]: 97.62% | Purity change [1, 8]: −2.18% | Solid form [1, 8]: Amorphous | Purity decrease ([1]; 40° C./75% RH, 6 months): 3.46% | Purity [1, 9]: 96.34% | Purity change [1, 9]: −3.46% | Solid form [1, 9]: Amorphous | The number of the purities exceeding the qualification thresholds [1, 9]: 4 | The number of the purities exceeding the qualification thresholds ([1]; 40° C./75% RH, 6 months, open package, listed as prior art amorphous form): four | The number of the purities exceeding the qualification thresholds ([1]; 40° C./75% RH, 6 months, open package, listed as prior art solid): four | Purity decrease ([1]; 60° C./75% RH, 1 month): over 6.3% | Purity [1, 10]: 93.48% | Purity change [1, 10]: −6.32% | Solid form [1, 10]: Amorphous | The number of the purities exceeding the qualification thresholds [1, 10]: 4 | The number of the purities exceeding the qualification thresholds ([1]; 60° C./75% RH, 1 month, open package, listed as prior art amorphous form): four | The number of the purities exceeding the qualification thresholds ([1]; 60° C./75% RH, 1 month, open package, listed as prior art solid): four | Purity ([1]; Initial): 99.80% | Solid form ([1]; Initial): Amorphous | The number of the purities exceeding the qualification thresholds [1, 11]: 1 | Purity change [2]: −1.16% | Chemical purity (in words) ([2]; listed as amorphous form): significant degradation | Purity change [3]: −0.11% | Chemical purity (in words) ([3]; listed as amorphous form): significant degradation | Weight gain at 80% RH ([4]; 80% RH, listed as Prior art solid): 3.69% | Weight gain at 80% RH ([4]; 80% RH, listed as The prior art amorphous form): 3.69% | Weight gain at 80% RH ([4]; 80% RH, listed as prior art amorphous form): 3.69% | Weight gain at 80% RH ([4]; 80% RH, listed as prior art solid): 3.69% | Hygroscopicity class ([4]; listed as prior art amorphous form): hygroscopic | Hygroscopicity class ([4]; listed as prior art solid): hygroscopic

C=CC(=O)N1CCC[C@@H](n2c(=O)n(-c3ccc(Oc4ccccc4)cc3)c3c(N)nccc32)C1 [Form CSII, (R)-1-(1-acryloylpiperidin-3-yl)-4-amino-3-(4-phenoxyphenyl)-1H-imidazo[4,5-c] pyridin-2(3H)-one]
Chemical purity during storage ([1]; 25° C./60% RH): above 99.8% | Time for which the crystalline state doesn't change / form is stable ([1]; 25° C./60% RH): at least 6 months | Purity [1, 7]: 99.89% | Purity change [1, 7]: +0.03% | The number of the purities exceeding the qualification thresholds [1, 7]: 0 | Time for which the crystalline state doesn't change / form is stable ([1]; 40° C./75% RH): at least 6 months | Chemical purity during storing ([1]; 40° C./75% RH and 60° C./75% RH): above 99.8% | Purity [1, 9]: 99.87% | Purity change [1, 9]: +0.01% | The number of the purities exceeding the qualification thresholds [1, 9]: 0 | Time for which the crystalline state doesn't change ([1]; 60° C./75% RH): at least 1 month | Solid form and purity after storage ([1]; 60° C./75% RH, 1 month): remained basically unchanged | Purity [1, 10]: 99.82% | Purity change [1, 10]: −0.04% | The number of the purities exceeding the qualification thresholds [1, 10]: 0 | Purity ([1]; Initial): 99.86% | The number of the purities exceeding the qualification thresholds [1, 11]: 0 | Impurity content versus qualification threshold ([1]; throughout the stability investigation processes): did not exceed the qualification thresholds; also recorded: did not exceed the qualificated threshold | Time for which chemical purity remains substantially unchanged [2]: at least 2 days | Chemical purity (in words) [2]: basically remained unchanged | Purity change [2]: +0.01% | Purity change [3]: −0.02% | Chemical purity (in words) [3]: basically remained unchanged | Time for which there is no change in the purity [3]: at least 1 week | Weight gain relative to that of the prior art ([4]; 80% RH): ⅙ | Weight gain at 80% RH ([4]; 80% RH): 0.60% | Crystalline state after the DVS test ([4]; XRPD before and after DVS): remained unchanged | Hygroscopicity class [4]: slightly hygroscopic | Crystalline state after grinding [5]: remains unchanged | Crystalline state after formulation process (mixed with excipients, tableted) [6]: remained unchanged; also recorded: did not change
